Read-outs that look alike come from different tables or passages of the source.
Target: T1, LRRK2 (endogenous, HiBit tagged) (Homo sapiens, UniProt Q5S007)
T1 construct: endogenous in cells; host or cells: HEK293 cells with HiBit knock-in at the endogenous LRRK2 locus, stably expressing firefly luciferase
Assay: Endogenous LRRK2 degradation assay, endogenous gene C-terminally HiBit-tagged in HEK293 cells (Nano-Glo Dual Luciferase)
Type: cell-based
Details: endogenous HiBit-tagged LRRK2 in HEK293 cells, 24 hours treatment
Method in brief: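 LRRK2-HiBit quantified via Nano-Glo Dual Luciferase in HEK293 knock-in cells co-expressing firefly luciferase, after 24 h exposure to compound (1 μM final top, 1:3, 11 points). Values normalised to DMSO median per plate and curve-fitted; Alamar Blue viability run alongside.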

[1] = read-out: **Endogenous WT Dmax (%)

T1 sequence (Q5S007 whole entry): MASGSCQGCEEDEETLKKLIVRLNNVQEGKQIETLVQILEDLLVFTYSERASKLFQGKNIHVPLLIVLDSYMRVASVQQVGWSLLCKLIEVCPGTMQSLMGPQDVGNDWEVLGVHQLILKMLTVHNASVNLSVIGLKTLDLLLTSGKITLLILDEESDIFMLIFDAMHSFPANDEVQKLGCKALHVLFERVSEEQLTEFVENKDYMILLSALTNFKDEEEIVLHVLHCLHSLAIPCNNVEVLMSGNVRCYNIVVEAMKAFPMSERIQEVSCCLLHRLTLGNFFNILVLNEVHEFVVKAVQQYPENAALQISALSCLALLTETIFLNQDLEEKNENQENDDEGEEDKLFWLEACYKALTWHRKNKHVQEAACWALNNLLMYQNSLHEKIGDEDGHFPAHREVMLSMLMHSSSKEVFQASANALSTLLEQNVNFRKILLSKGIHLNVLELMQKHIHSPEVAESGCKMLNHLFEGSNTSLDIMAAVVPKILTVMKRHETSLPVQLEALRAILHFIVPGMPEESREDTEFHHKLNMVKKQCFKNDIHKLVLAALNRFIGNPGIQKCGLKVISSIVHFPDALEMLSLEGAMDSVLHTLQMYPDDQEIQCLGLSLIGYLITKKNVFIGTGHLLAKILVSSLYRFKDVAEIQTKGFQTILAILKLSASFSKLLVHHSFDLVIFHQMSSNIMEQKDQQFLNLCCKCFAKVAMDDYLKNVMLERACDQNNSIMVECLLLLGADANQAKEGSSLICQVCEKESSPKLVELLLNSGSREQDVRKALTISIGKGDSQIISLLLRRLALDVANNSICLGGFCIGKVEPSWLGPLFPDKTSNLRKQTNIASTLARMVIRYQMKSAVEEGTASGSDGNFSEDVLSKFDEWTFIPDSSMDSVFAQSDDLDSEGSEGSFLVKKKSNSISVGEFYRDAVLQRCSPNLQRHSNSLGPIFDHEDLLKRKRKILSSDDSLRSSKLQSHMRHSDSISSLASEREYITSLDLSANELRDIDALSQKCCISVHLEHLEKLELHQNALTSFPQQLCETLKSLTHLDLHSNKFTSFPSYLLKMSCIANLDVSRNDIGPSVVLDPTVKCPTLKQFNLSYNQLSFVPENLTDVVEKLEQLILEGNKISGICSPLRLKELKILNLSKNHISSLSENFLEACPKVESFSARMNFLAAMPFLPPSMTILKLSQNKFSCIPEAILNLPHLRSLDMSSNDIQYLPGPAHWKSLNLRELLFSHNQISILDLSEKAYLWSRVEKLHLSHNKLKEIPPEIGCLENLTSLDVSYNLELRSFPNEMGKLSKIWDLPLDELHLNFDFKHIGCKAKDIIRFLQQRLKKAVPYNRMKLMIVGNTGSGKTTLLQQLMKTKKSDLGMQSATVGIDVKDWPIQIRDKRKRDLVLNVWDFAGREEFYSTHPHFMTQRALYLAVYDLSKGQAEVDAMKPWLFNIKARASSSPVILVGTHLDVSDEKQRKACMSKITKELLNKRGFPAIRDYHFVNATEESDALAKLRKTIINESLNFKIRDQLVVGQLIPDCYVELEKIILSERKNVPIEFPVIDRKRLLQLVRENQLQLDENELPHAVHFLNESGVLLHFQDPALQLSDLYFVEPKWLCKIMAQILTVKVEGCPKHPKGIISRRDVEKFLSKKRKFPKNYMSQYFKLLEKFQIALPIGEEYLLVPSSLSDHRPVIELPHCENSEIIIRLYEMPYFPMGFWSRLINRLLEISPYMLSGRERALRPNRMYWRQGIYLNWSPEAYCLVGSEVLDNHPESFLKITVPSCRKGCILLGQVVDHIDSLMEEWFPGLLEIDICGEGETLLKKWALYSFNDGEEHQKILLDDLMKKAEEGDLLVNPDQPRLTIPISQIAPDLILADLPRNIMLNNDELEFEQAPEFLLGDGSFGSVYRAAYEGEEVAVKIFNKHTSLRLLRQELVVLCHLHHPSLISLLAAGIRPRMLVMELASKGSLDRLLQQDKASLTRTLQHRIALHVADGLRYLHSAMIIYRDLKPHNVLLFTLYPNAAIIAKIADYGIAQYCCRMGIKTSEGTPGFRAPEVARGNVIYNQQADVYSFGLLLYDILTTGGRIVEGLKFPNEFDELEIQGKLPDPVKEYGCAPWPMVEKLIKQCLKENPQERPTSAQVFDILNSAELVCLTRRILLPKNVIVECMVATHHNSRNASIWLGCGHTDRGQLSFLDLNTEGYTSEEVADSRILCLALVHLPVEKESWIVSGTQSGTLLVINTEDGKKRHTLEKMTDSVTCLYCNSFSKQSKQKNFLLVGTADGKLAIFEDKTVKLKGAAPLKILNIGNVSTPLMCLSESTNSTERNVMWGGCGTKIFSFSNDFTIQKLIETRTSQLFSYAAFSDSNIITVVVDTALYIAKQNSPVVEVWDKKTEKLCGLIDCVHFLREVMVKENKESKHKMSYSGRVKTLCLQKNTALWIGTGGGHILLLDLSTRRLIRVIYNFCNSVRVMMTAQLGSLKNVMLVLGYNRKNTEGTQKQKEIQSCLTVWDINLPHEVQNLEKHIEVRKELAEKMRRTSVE

| DC50 (read-out: Endogenous WT DC50) | Dmax (read-out: Endogenous WT Dmax) | Dmax [1] | DC50 (read-out: *Endogenous WT DC50) | SMILES |
| --- | --- | --- | --- | --- |
|  |  | 50 to 70% | < 0.01 µM | COc1c(N2CCC(O[C@@H]3CCN(CC4CCN(c5cc(-c6n[nH]c7ccc(OC8(C)CC8)cc67)ncn5)CC4)C(C)(C)C3)CC2)ccc2c1CN(C1CCC(=O)NC1=O)C2=O (stereo partly drawn) [Compound 322, 3-[5-(4-{[(4R)-2,2-dimethyl-1-[(1-{6-[5-(1-methylcyclopropoxy)-1H-indazol-3-yl]pyrimidin-4-yl}piperidin-4-yl)methyl]piperidin-4-yl]oxy}piperidin-1-yl)-4-methoxy-1-oxo-2,3-dihydro-1H-isoindol-2-yl]piperidine-2,6-dione] |
|  |  | 50 to 70% | < 0.01 µM | CC1(Oc2ccc3n[nH]c(-c4cc(N5CCN(C[C@H]6C[C@H](CN7CCN(c8ccc9c(c8F)CN(C8CCC(=O)NC8=O)C9=O)CC7)C6)CC5)ncn4)c3c2)CC1 (some centres unmarked) [Compound 334, 3-[4-fluoro-1-oxo-5-(4-{[(1r,3r)-3-[(4-{6-[5-(1-methylcyclopropoxy)-2H-indazol-3-yl]pyrimidin-4-yl}piperazin-1-yl)methyl]cyclobutyl]methyl}piperazin-1-yl)-2,3-dihydro-1H-isoindol-2-yl]piperidine-2,6-dione] |
|  |  | 50 to 70% | < 0.01 µM | COc1c(N2CCC(O[C@H]3CCN(CC4CCN(c5cc(-c6n[nH]c7ccc(OC8(C)CC8)cc67)ncn5)CC4)C(C)(C)C3)CC2)ccc2c1CN(C1CCC(=O)NC1=O)C2=O (stereo partly drawn) [Compound 316, 3-[5-(4-{[(4S)-2,2-dimethyl-1-[(1-{6-[5-(1-methylcyclopropoxy)-1H-indazol-3-yl]pyrimidin-4-yl}piperidin-4-yl)methyl]piperidin-4-yl]oxy}piperidin-1-yl)-4-methoxy-1-oxo-2,3-dihydro-1H-isoindol-2-yl]piperidine-2,6-dione] |
| < 0.01 µM | 50 to 70% |  |  | Cc1nc(-c2n[nH]c3ccc(OC4(C)CC4)cc23)cc(N2CCN(C[C@H]3CC[C@H](OC4CCN(c5ccc6c(c5F)CN(C5CCC(=O)NC5=O)C6=O)CC4)CC3)CC2)n1 (some centres unmarked) [Compound 365, 3-[4-fluoro-1-oxo-5-(4-{[(1r,4r)-4-[(4-{2-methyl-6-[5-(1-methylcyclopropoxy)-1H-indazol-3-yl]pyrimidin-4-yl}piperazin-1-yl)methyl]cyclohexyl]oxy}piperidin-1-yl)-2,3-dihydro-1H-isoindol-2-yl]piperidine-2,6-dione] |
| < 0.01 µM | 50 to 70% |  |  | CC1(Oc2ccc3[nH]nc(-c4ccnc(N5CCN(C[C@H]6CC[C@H](OC7CCN(c8ccc9c(c8F)CN(C8CCC(=O)NC8=O)C9=O)CC7)CC6)CC5)c4)c3c2)CC1 (some centres unmarked) [Compound 358, 3-[4-fluoro-1-oxo-5-(4-{[(1r,4r)-4-[(4-{4-[5-(1-methylcyclopropoxy)-1H-indazol-3-yl]pyridin-2-yl}piperazin-1-yl)methyl]cyclohexyl]oxy}piperidin-1-yl)-2,3-dihydro-1H-isoindol-2-yl]piperidine-2,6-dione] |
|  |  | 50 to 70% | < 0.01 µM | CC1(Oc2ccc3[nH]nc(-c4cc(N5CCN(CCN6CCC7(CN(c8ccc9c(c8F)CN(C8CCC(=O)NC8=O)C9=O)C7)C(F)(F)C6)CC5)ncn4)c3c2)CC1 (centres unmarked) [Compound 336, 3-(5-{5,5-difluoro-7-[2-(4-{6-[5-(1-methylcyclopropoxy)-1H-indazol-3-yl]pyrimidin-4-yl}piperazin-1-yl)ethyl]-2,7-diazaspiro[3.5]nonan-2-yl}-4-fluoro-1-oxo-2,3-dihydro-1H-isoindol-2-yl)piperidine-2,6-dione] |

Continued, molecule first:

| SMILES | DC50 (read-out: Endogenous WT DC50) | Dmax (read-out: Endogenous WT Dmax) | Dmax [1] | DC50 (read-out: *Endogenous WT DC50) |
| --- | --- | --- | --- | --- |
| COc1c(N2CCC(O[C@H]3CC[C@H](OC4CCN(c5cc(-c6n[nH]c7ccc(OC8(C)CC8)cc67)ncn5)CC4)CC3)CC2)ccc2c1CN(C1CCC(=O)NC1=O)C2=O (some centres unmarked) [Compound 248, 3-[4-methoxy-1-oxo-5-(4-{[(1r,4r)-4-[(1-{6-[5-(1-methylcyclopropoxy)-1H-indazol-3-yl]pyrimidin-4-yl}piperidin-4-yl)oxy]cyclohexyl]oxy}piperidin-1-yl)-2,3-dihydro-1H-isoindol-2-yl]piperidine-2,6-dione] | < 0.01 µM | 50 to 70% |  |  |
| COc1c(N2CCC(CN3CCN(C[C@@H]4CCN(c5cc(-c6n[nH]c7ccc(OC8(C)CC8)cc67)ncn5)C4)CC3)CC2)ccc2c1CN(C1CCC(=O)NC1=O)C2=O (stereo partly drawn) [Compound 311, 3-(4-methoxy-5-{4-[(4-{[(3S)-1-{6-[5-(1-methylcyclopropoxy)-1H-indazol-3-yl]pyrimidin-4-yl}pyrrolidin-3-yl]methyl}piperazin-1-yl)methyl]piperidin-1-yl}-1-oxo-2,3-dihydro-1H-isoindol-2-yl)piperidine-2,6-dione] |  |  | 50 to 70% | < 0.01 µM |
| CC1(Oc2cc3c(-c4cc(N5CCC(CN6CC[C@@H](CN7CCN(c8ccc9c(c8F)CN(C8CCC(=O)NC8=O)C9=O)CC7)[C@@H](F)C6)CC5)ncn4)n[nH]c3cc2F)CC1 (some centres unmarked) [Compound 294, 3-[4-fluoro-5-(4-{[(3r,4s)-3-fluoro-1-[(1-{6-[6-fluoro-5-(1-methylcyclopropoxy)-1H-indazol-3-yl]pyrimidin-4-yl}piperidin-4-yl)methyl]piperidin-4-yl]methyl}piperazin-1-yl)-1-oxo-2,3-dihydro-1H-isoindol-2-yl]piperidine-2,6-dione] |  |  | 50 to 70% | < 0.01 µM |
| CC1(Oc2ccc3[nH]nc(-c4cc(N5CCC(CN6CC[C@@H](OC7CCN(c8ccc9c(c8F)CN(C8CCC(=O)NC8=O)C9=O)CC7)CC6(C)C)CC5)ncn4)c3c2)CC1 (stereo partly drawn) [Compound 310, 3-[5-(4-{[(4R)-2,2-dimethyl-1-[(1-{6-[5-(1-methylcyclopropoxy)-1H-indazol-3-yl]pyrimidin-4-yl}piperidin-4-yl)methyl]piperidin-4-yl]oxy}piperidin-1-yl)-4-fluoro-1-oxo-2,3-dihydro-1H-isoindol-2-yl]piperidine-2,6-dione] |  |  | 50 to 70% | < 0.01 µM |
| CC1(Oc2ccc3n[nH]c(-c4cc(N5CCC(O[C@H]6CC[C@H](CN7CCN(c8ccc9c(c8F)CN(C8CCC(=O)NC8=O)C9=O)CC7)CC6)CC5)ncn4)c3c2)CC1 (some centres unmarked) [Compound 213, 3-[4-fluoro-5-[4-[[4-[[1-[6-[5-(1-methylcyclopropoxy)-2H-indazol-3-yl]pyrimidin-4-yl]-4-piperidyl]oxy]cyclohexyl]methyl]piperazin-1-yl]-1-oxo-isoindolin-2-yl]piperidine-2,6-dione] | < 0.01 µM | ≥ 70% |  |  |
| COc1cc(N2CCC(CN3CCN(CC4CCN(c5cc(-c6n[nH]c7ccc(OC8(C)CC8)cc67)ncn5)CC4)CC3)CC2)cc2c1C(=O)N(C1CCC(=O)NC1=O)C2 (centres unmarked) [Compound 215, 3-[7-methoxy-5-[4-[[4-[[1-[6-[5-(1-methylcyclopropoxy)-1H-indazol-3-yl]pyrimidin-4-yl]-4-piperidyl]methyl]piperazin-1-yl]methyl]-1-piperidyl]-1-oxo-isoindolin-2-yl]piperidine-2,6-dione] | < 0.01 µM | ≥ 70% |  |  |
| CC1(Oc2ccc3[nH]nc(-c4cc(N5CCC(O[C@H]6CCN(CC7CCN(c8ccc9c(c8F)CN(C8CCC(=O)NC8=O)C9=O)CC7)C(C)(C)C6)CC5)ncn4)c3c2)CC1 (stereo partly drawn) [Compound 308, 3-(5-(4-(((S)-2,2-dimethyl-4-((1-(6-(5-(1-methylcyclopropoxy)-1H-indazol-3-yl)pyrimidin-4-yl)piperidin-4-yl)oxy)piperidin-1-yl)methyl)piperidin-1-yl)-4-fluoro-1-oxoisoindolin-2-yl)piperidine-2,6-dione] |  |  | 50 to 70% | < 0.01 µM |

— patent US12559506B2, “Indazole based compounds and associated methods of use” (Arvinas Operations, Inc., priority 2021, dated 2026)
